Like-named read-outs stand apart in the source and are kept apart here.
Target: T1, human 5-HT2B receptor (Homo sapiens, UniProt P41595)
T1 construct: expressed in transfected cells
Assay: competition assay: inhibition of binding of [3H]5-hydroxytryptamine to the cloned human 5-HT2B receptor (cell membranes)

T1 sequence (P41595 whole entry): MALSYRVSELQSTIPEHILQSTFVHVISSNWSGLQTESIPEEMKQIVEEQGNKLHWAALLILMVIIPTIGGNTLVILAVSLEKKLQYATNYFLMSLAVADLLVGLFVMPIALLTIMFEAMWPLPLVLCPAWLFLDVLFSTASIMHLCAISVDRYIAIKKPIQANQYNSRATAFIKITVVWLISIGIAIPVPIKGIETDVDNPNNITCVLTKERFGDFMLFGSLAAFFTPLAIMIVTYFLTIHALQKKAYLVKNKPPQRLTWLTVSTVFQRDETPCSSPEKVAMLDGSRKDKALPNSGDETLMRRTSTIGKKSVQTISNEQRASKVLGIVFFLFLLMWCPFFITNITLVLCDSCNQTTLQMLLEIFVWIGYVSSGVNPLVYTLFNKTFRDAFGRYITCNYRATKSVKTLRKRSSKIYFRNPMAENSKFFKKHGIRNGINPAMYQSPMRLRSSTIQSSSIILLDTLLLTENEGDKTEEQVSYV

| Compound | IC50 | IC50 (read-out: IC50 (concentration which displaces or inhibits the binding of 50% of the labeled 5-hydroxytryptamine)) |
| --- | --- | --- |
| c1ccc2c(N3CCNCC3)cccc2c1 [1-(1-naphthyl)piperazine, 1-(1-Naphthyl)piperazine] | 2.41 nM | – |
| O=C(CCCN1CCC2(CC1)C(=O)NCN2c1ccccc1)c1ccc(F)cc1 [spiperone, 8-[4-(4-fluorophenyl)4-oxobutyl]-1-phenyl-1,3,8-triazaspiro[4,5]decan-4-one] | – | 691 nM |
| CC(N)Cc1c[nH]c2ccc(O)cc12 (stereo not drawn) [α-methyl-5-hydroxytryptamine, 3-(2-aminopropyl)-1H-indol-5-ol] | 11.8 nM | – |

Source: patent US5698444A (Eli Lilly and Company, priority 1993, dated 1997)
